Results: ChEMBL document CHEMBL1154198, “Chemical genetics of Plasmodium falciparum” (Nature, 2010)

How the values were obtained:
Plasmodium falciparum [1] = assay: ST_JUDE: Plasmodium falciparum K1 EC50 (uM) as measured by SYBR green dye; assay type: functional, organism-based
Plasmodium falciparum [2] = assay: ST_JUDE: Plasmodium falciparum 3D7 EC50 (uM) as measured by SYBR green dye; assay type: functional, organism-based

Row | SMILES | EC50 (Plasmodium falciparum [1]) [µM] | EC50 (Plasmodium falciparum [2]) [µM]
1 | Cc1ccc2ccc(C(Nc3ccccn3)c3cccc(Cl)c3)c(O)c2n1 (stereo not drawn) | 3.66 | 4.13
2 | COc1ccccc1N1CCN(Cc2cc(COC(C)C)c3cccnc3c2O)CC1 | > 15 | 5.28
3 | COc1ccc(Cn2c(SCc3ccccc3F)nc3nccnc3c2=O)cc1 | 11.7 | 0.344
4 | CCOC(=O)c1oc2ccccc2c1NC(=O)c1ccc(C)c([N+](=O)[O-])c1 | > 15 | > 15
5 | COC(=O)C1=CNC=C(C(=O)OC)C1c1ccc(F)c(F)c1 | > 15 | 8.04
6 | COC(=O)c1c(S(=O)(=O)N2CCCC2)sc2c1CCN(CCC(C)c1ccccc1)C2 (stereo not drawn) | 4.78 | 4.39
7 | CCc1c(C)nc(-n2nc(C)cc2NC(=O)c2cccc(Br)c2)nc1O | > 15 | > 15
8 | COc1ccc(OC)c(N2C(=O)c3cccc4c([N+](=O)[O-])ccc(c34)C2=O)c1 | > 15 | > 15
9 | Cc1ccc2c(c1)-c1c(cnn1CC(=O)Nc1cccc(C#N)c1)CO2 | 5.38 | > 15
10 | CCN(CC)CCCC(C)Nc1nc(C)nc2cc(Cl)ccc12 (stereo not drawn) | > 15 | 6.6
11 | Cc1c(Cl)ccc2c(C(=O)Nc3ccc(S(=O)(=O)N4CCOCC4)cc3)cc(-c3cccnc3)nc12 | > 15 | 1.22
12 | O=C(Nc1ccc(F)cc1)C1c2ccccc2C(=O)N(C2CCCC2)C1c1cccs1 (stereo not drawn) | 0.975 | 0.808
13 | COc1ccc(N(CC(=O)Nc2cccc(C(F)(F)F)c2)S(C)(=O)=O)cc1 | > 15 | > 15
14 | CC(=O)c1ccc(NC2=C(n3nnc4ccccc43)C(=O)c3ccccc3C2=O)cc1 | 1.58 | > 15
15 | CCCc1cc(O)nc(Nc2ccc(Cl)c(C(F)(F)F)c2)n1 | 2.84 | 3.09
16 | CN1CCN(c2nc(Nc3ccc(SC(F)F)cc3)c3cnn(-c4ccccc4)c3n2)CC1 | 3.72 | 1.31
17 | CS(=O)(=O)N(Cc1ccccc1)c1ccccc1C(=O)Nc1cc(Cl)ccc1Cl | 4.58 | 6.12
18 | Cn1c(-c2ccccc2)[n+](C)c2ccccc21 | 8.29 | 11.7
19 | COc1ccc(CN2CCN(Cc3ccccc3)CC2)c(O)c1 | 0.754 | 1.09
20 | COc1ccccc1C(=O)N(Cc1cccnc1)c1nc2c(F)cccc2s1 | 9.07 | > 15
21 | CCN(CC)CCNc1nc(Nc2cccc(OC)c2)c2cnn(-c3ccccc3)c2n1 | 2.96 | 0.458
22 | OC(CNCc1ccccc1)Cn1c2ccccc2c2ccccc21 (stereo not drawn) | 0.81 | 3.76

Row | SMILES | EC50 (Plasmodium falciparum [1]) [µM] | EC50 (Plasmodium falciparum [2]) [µM]
23 | CO/C(O)=C1\C(C)=NC2=C(C(=O)CC(c3ccc(OC)c(OC)c3)C2)C1c1cccc(Cl)c1 (stereo not drawn) | 3.46 | 4.1
24 | CC(=O)C1=C(C)NC(SCC(=O)c2cccc([N+](=O)[O-])c2)=C(C#N)C1c1ccc(Cl)cc1 (stereo not drawn) | 6.73 | > 15
25 | COc1ccc(OCC(O)Cn2c(C)[n+](C)c3ccccc32)cc1 (stereo not drawn) | > 15 | > 15
26 | CC(C)c1ccc(/C=C2\Oc3c(ccc(O)c3CN(C)C)C2=O)cc1 | 0.615 | 1.01
27 | CCOC(=O)c1ccc(NC(=O)C2CCC(C(C)(C)C)CC2)cc1 (stereo not drawn) | > 15 | > 15
28 | CCSc1ccc2ccccc2[n+]1CC | 0.259 | 0.416
29 | CCn1cc(CCCC(=O)NCc2ccc(OC)cc2)c2ccccc21 | 4.06 | 3.75
30 | COc1cccc2sc(N(Cc3cccnc3)C(=O)C3CCCCC3)nc12 | > 15 | > 15
31 | CSCCCN1C(=O)CSC1c1cnccc1-c1ccc(Br)cc1 (stereo not drawn) | 1.17 | 1.21
32 | CCN(CC)CCCNc1nc(-c2ccc(Cl)cc2)nc2ccccc12 | > 15 | > 15
33 | Cc1ccc(O)c(-n2cc3c(c2-c2ccc(C(C)(C)C)cc2)c(=O)n(C)c(=O)n3C)c1 | 2.41 | 3.57
34 | Cc1nc2ccccc2c(=O)n1-c1cccc(NC(=O)c2ccc(C(F)(F)F)cc2)c1 | > 15 | > 15
35 | COc1ccccc1-c1nnc(NC(=O)c2cccc(SC)c2)o1 | > 15 | > 15
36 | CCc1ccccc1NC(=O)C1c2ccccc2C(=O)N(C2CCCC2)C1c1cccs1 (stereo not drawn) | 3.38 | 1.73
37 | Cc1cc(Cn2ccnc2)c(C)c([N+](=O)[O-])c1Cn1ccnc1 | > 15 | > 15
38 | CC(=O)c1c(C)n(CCOc2ccc(F)cc2)c2ccccc12 | 4.88 | > 15
39 | CCc1ccc(N(CC)C(=O)c2cc3cc4ccc(OC)cc4nc3o2)cc1 | > 15 | > 15
40 | Cc1c(C=O)c2ccccc2n1CC(=O)Nc1ccc(Br)c(Cl)c1 | 0.891 | 0.702
41 | Cc1cc(Nc2ccc(F)c(Cl)c2)n2nc(C)nc2n1 | 9.17 | 3.2
42 | CC(=O)N1N=C2C3CCN(CC3)C2C1c1ccc(Br)cc1 (stereo not drawn) | > 15 | > 15
43 | CCCN(CCC)CCCNC(=S)Nc1ccc2nc(N3CCN(C)CC3)cc(C)c2c1 | 5.25 | 3.4
44 | CC[n+]1ccccc1/C=C1\Sc2ccc(C)cc2N1C | 0.453 | 0.572
